{
  "source": "patent US12622899B2",
  "about": "(PureTech LYT 100, Inc., priority 2018, dated 2026)",
  "test_system": "patients with Idiopathic Pulmonary Fibrosis (IPF)",
  "assay": "IPF trial Part A (26-week double-blind): efficacy, FVC and FVCpp, time to progression",
  "format": "in vivo, human",
  "settings": "for FVC, Bayesian Posterior Mean Difference vs. Placebo / FVC, Frequentist Adjusted Mean Difference vs. Placebo / FVCpp, Bayesian Posterior Mean comparison vs. Placebo / FVCpp, Frequentist Adjusted Mean comparison vs. Placebo / Treatment effect, FVC, versus placebo / Treatment effect, FVCpp, versus placebo: 26 weeks",
  "protocol": "The primary objective was to determine the dose(s) to carry into Phase 3. […] Patients were randomized to one of the four treatments in a 1:1:1:1 ratio and stratified based on prior exposure to nintedanib (<6 months) versus nintedanib-naïve patients. Patients who completed the Double-blind Treatment Period (Part A) were offered participation in the Long-term Extension (Part B). […] For patients who participated in Part B, the follow-up was conducted at the end of Part B. A graphical illustration of an embodiment of the trial design is provided as FIG. 24B.\nDoses were adjusted according to safety and tolerability to avoid toxicity.\nNote that, for all treatment groups, the first 7 days of treatment, one capsule was taken TID., Day 8 through Day 14, two capsules TID., and Day 15 forward, 3 capsules TID.\nWeekly home FVC was assessed with an individual spirometer, which was supplied to each patient. The site used its own equipment for in-clinic FVC assessments. Spirometry measurements were performed according to the American Thoracic Society/European Respiratory Society (“An Official American Thoracic Society and European Respiratory Society Technical Statement Technical Statement” Am J Respir Crit Care Med. 2019; 200(8):e71-e83) and the study specific Pulmonary Function Manual, at timepoints specified in the Schedule of Assessments. Spirometry was conducted while the patient was in a seated position. The test was done in order to achieve three acceptable FVC measurements (three curves to be provided), and the best result selected according to the guidelines. The best of three efforts was defined as the highest FVC, obtained on any of the three blows meeting the ATS/ERS/JRS/ALAT 2019 criteria (Graham et al, 2019) with preferably a maximum of eight attempts.\nPulmonary function was measured in a standardized manner and results transmitted electronically during the visit immediately after performing the spirometry and evaluated by a central reader. In case the acceptability and repeatability criteria as specified by ATS/ERS/JRS/ALAT guidelines were not met, a repeat spirometry was performed during the same visit.\nThe primary efficacy endpoint was the rate of decline in FVC mL over 26 weeks. In addition, decline in FVC % predicted from baseline to Week 26 and by >10% and >5% was assessed.\nThe secondary endpoint was comparison of FVC % predicted change from baseline to Week 26.\nThe following parameters were measured or calculated as part of the spirometry assessment: • FVC (mL) and FVC % predicted (FVCpp) • FEV1 (mL) and percent predicted forced expiratory volume in 1 second (FEV1% p) • FEV1/FVC ratio • Forced expiratory flow between 25% and 75% of exhaled volume (FEF25-75) The ‘2012 Global Lung Function Initiative Equations’ was used to calculate the predicted values (Quanjer et al, “Multi-ethnic reference values for spirometry for the 3-95 year age range: the global lung function 2012 equations: Report of the Global Lung Function Initiative (GLI), ERS Task Force to establish improved Lung Function Reference Values.,” Eur Respir J, vol. 40(6), pp. 1324-1343, 2012). […]",
  "key": {"[1]": {"settings": "deupirfenidone 550 mg TID, N=65"}, "[2]": {"settings": "deupirfenidone 825 mg TID, N=63"}, "[3]": {"settings": "deupirfenidone 825 mg TID, N=63, listed as Deupirfenidone"}, "[4]": {"settings": "deupirfenidone 825 mg TID, N=63, listed as deupirfenidone"}},
  "data": [
    {"smiles": "[2H]C([2H])([2H])c1ccc(=O)n(-c2ccccc2)c1", "note": "[LYT-100, 5-(methyl-d3)-1-phenylpyridin-2-(1H)-one]", "values": [
      {"measurement": "FVC, Bayesian Posterior Mean Difference vs. Placebo", "setting": "deupirfenidone 550 mg TID", "result": 34.1, "unit": "mL"},
      {"measurement": "FVC, Frequentist Adjusted Mean Difference vs. Placebo", "setting": "deupirfenidone 550 mg TID", "result": 31.8, "unit": "mL"},
      {"measurement": "FVCpp, Bayesian Posterior Mean comparison vs. Placebo", "setting": "deupirfenidone 550 mg TID", "result": 1.47},
      {"measurement": "FVCpp, Frequentist Adjusted Mean comparison vs. Placebo", "setting": "deupirfenidone 550 mg TID", "result": 1.62},
      {"measurement": "Treatment effect, FVC, versus placebo", "setting": "deupirfenidone 550 mg TID", "result": 28.3, "unit": "%"},
      {"measurement": "Treatment effect, FVCpp, versus placebo", "setting": "deupirfenidone 550 mg TID", "result": 47.2, "unit": "%"},
      {"measurement": "FVC, Bayesian Posterior Mean Difference vs. Placebo", "setting": "deupirfenidone 825 mg TID", "result": 90.9, "unit": "mL"},
      {"measurement": "FVC, Frequentist Adjusted Mean Difference vs. Placebo", "setting": "deupirfenidone 825 mg TID", "result": 91.0, "unit": "mL"},
      {"measurement": "FVCpp, Bayesian Posterior Mean comparison vs. Placebo", "setting": "deupirfenidone 825 mg TID", "result": 2.85},
      {"measurement": "FVCpp, Frequentist Adjusted Mean comparison vs. Placebo", "setting": "deupirfenidone 825 mg TID", "result": 3.00},
      {"measurement": "Treatment effect, FVC, versus placebo", "setting": "deupirfenidone 825 mg TID", "result": 80.9, "unit": "%"},
      {"measurement": "Treatment effect, FVCpp, versus placebo", "setting": "deupirfenidone 825 mg TID", "result": 87.5, "unit": "%"},
      {"measurement": "Treatment effect, FVC, versus placebo", "setting": "deupirfenidone 825 mg TID, listed as Deupirfenidone", "result": 80.9, "unit": "%"},
      {"measurement": "Treatment effect, FVC, versus placebo", "setting": "deupirfenidone 825 mg TID, listed as deupirfenidone", "result": 80.9, "unit": "%"},
      {"measurement": "6-month FVC decline compared with healthy older adults", "setting": "LYT-100 825 mg TID (FIG. 45)", "result": "in line with that seen for healthy adults >60 years"},
      {"measurement": "Cohen's D, FVC", "setting": "deupirfenidone 550 mg TID", "result": 0.14},
      {"measurement": "Cohen's D, FVCpp", "setting": "deupirfenidone 550 mg TID", "result": 0.23},
      {"measurement": "Change from Baseline in FVC over 26 Weeks, Bayesian Posterior Mean (SE)", "setting": "[1]", "result": "−76.7 (28.60) mL"},
      {"measurement": "Change from Baseline in FVC over 26 Weeks, Frequentist Adjusted Mean (SE)", "setting": "[1]", "result": "−80.7 (29.32) mL"},
      {"measurement": "Change from Baseline in FVCpp over 26 Weeks, Bayesian Posterior Mean (SE)", "setting": "[1]", "result": "−1.80 (0.88)"},
      {"measurement": "Change from Baseline in FVCpp over 26 Weeks, Frequentist Adjusted Mean (SE)", "setting": "[1]", "result": "−1.81 (0.886)"},
      {"measurement": "Cohen's D, FVC", "setting": "deupirfenidone 825 mg TID", "result": 0.40},
      {"measurement": "Cohen's D, FVCpp", "setting": "deupirfenidone 825 mg TID", "result": 0.44},
      {"measurement": "Change from Baseline in FVC over 26 Weeks, Bayesian Posterior Mean (SE)", "setting": "[2]", "result": "−19.9 (28.29) mL"},
      {"measurement": "Change from Baseline in FVCpp over 26 Weeks, Bayesian Posterior Mean (SE)", "setting": "[2]", "result": "−0.42 (0.88)"},
      {"measurement": "Change from Baseline in FVC over 26 Weeks, Frequentist Adjusted Mean (SE)", "setting": "[3]", "result": "−21.5 (28.86) mL"},
      {"measurement": "Change from Baseline in FVCpp over 26 Weeks, Frequentist Adjusted Mean (SE)", "setting": "[3]", "result": "−0.43 (0.872)"},
      {"measurement": "Change from Baseline in FVC over 26 Weeks, Frequentist Adjusted Mean (SE)", "setting": "[4]", "result": -21.5, "unit": "mL"},
      {"measurement": "Change from Baseline in FVCpp over 26 Weeks, Frequentist Adjusted Mean (SE)", "setting": "[4]", "result": "−0.43"}
    ]}
  ]
}
